Source: US20120115852A1, “HETEROCYCLIC COMPOUNDS AS AUTOTAXIN INHIBITORS” (Merck Patent Gesellschaft Mit Beschrankter Haftung, priority 2009, published 2012)

Biological target: T1, recombinant autotaxin (Homo sapiens, UniProt Q13822)
T1 construct: made in house; host or cells: Hi5 insect cells (baculovirus)
Assay: Autotaxin test (enzyme test), Amplex Red fluorescence with LPC substrate
Format: biochemical
Conditions: autotaxin inhibition (enzyme test); for remaining activity at 10 µM: 10 μM compound, read-out: % Control at 10 μM
Procedure, shortened: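 Activity was inferred from H2O2 made from released choline, detected as Amplex Red/peroxidase fluorescence (485 nm excitation, 612 nm emission, kinetic read). Beforehand, Hi5-expressed autotaxin sat with compound 30 min at 22° C, then hydrolysed 75 μM final LPC for 90 min at 37° C, pH 8 Tris buffer.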

| Compound | remaining activity at 10 µM [%] | IC50 [µM] |
| --- | --- | --- |
| CC(C)(C)CC(=O)N1CCN2C(=O)c3cc(Br)ccc3NC(=O)C2C1 (stereo not drawn) [Compound A142] | 85 |  |
| CN1CCN(C(=O)CN2C(=O)C3CN(C(=O)CC(C)(C)C)CCN3C(=O)c3cc(-c4ccc(Cl)cc4F)ccc32)CC1 (stereo not drawn) [Compound A144] | 11 | > 1 |
| CC(C)(C)CC(=O)N1CCN2C(=O)c3cc(-c4ccc(Cl)cc4F)ccc3N(CCC3CCNCC3)C(=O)C2C1 (stereo not drawn) [Compound A146] | 10 | > 1 |
| CC(C)(C)CC(=O)N1CCN2C(=O)c3cc(-c4ccc(Cl)cc4F)ccc3N(CC3CCNCC3)C(=O)C2C1 (stereo not drawn) [Compound A147] | 62 | > 1 |
| CC(C)(C)CC(=O)N1CCN2C(=O)c3cc(-c4ccc(Cl)cc4F)ccc3N(CCN3CCOCC3)C(=O)[C@H]2C1 [Compound A148] | 10 | > 1 |
| CN1CCN(C(=O)CN2C(=O)[C@H]3CN(C(=O)CC(C)(C)C)CCN3C(=O)c3cc(-c4ccc(Cl)cc4F)ccc32)CC1 [Compound A149] | 15 | > 1 |
| CN(C)CCN1C(=O)[C@H]2CN(C(=O)CC(C)(C)C)CCN2C(=O)c2cc(-c3ccc(Cl)cc3F)ccc21 [Compound A151] | 16 | > 1 |
| O=C([C@@H]1CCCN1C1CCNCC1)N1CCN2C(=O)c3cc(-c4ccc(Cl)cc4F)ccc3N(CCN3CCOCC3)C(=O)[C@H]2C1 [Compound A153] | 21 | > 1 |
| CN1CCN(C(=O)CN2C(=O)[C@H]3CN(C(=O)[C@@H]4CCCN4C4CCNCC4)CCN3C(=O)c3cc(-c4ccc(Cl)cc4F)ccc32)CC1 [Compound A154] | 27 | > 1 |
| O=C([C@@H]1CCCN1C1CCNCC1)N1CCN2C(=O)c3cc(-c4ccc(Cl)cc4F)ccc3N(CCC3CCNCC3)C(=O)[C@H]2C1 [Compound A158] | 21 | > 1 |
| O=C([C@@H]1CCCN1C1CCNCC1)N1CCN2C(=O)c3cc(-c4ccc(Cl)cc4F)ccc3N(CCO)C(=O)[C@H]2C1 [Compound A159] | 16 | > 1 |

More lines, now with the values ahead:

| remaining activity at 10 µM [%] | IC50 [µM] | Compound |
| --- | --- | --- |
| -21 | 0.1 to 1 | CC1(C)SCNC1C(=O)N1CCN2C(=O)c3cc(-c4ccc(Cl)cc4)ccc3NC(=O)C2C1 (stereo not drawn) [Compound A141, 7-(4-Chlorophenyl)-2-(5,5-dimethylthiazolidine-4-carbonyl)-1,3,4,11a-tetrahydro-2H,10H-2,4a,10-triazadibenzo[a,d]cycloheptene-5,11-dione] |
| 3 | 0.1 to 1 | CC(C)(C)CC(=O)N1CCN2C(=O)c3cc(-c4ccc(Cl)cc4F)ccc3N(CCN3CCOCC3)C(=O)C2C1 (stereo not drawn) [Compound A143] |
| 2 | 0.1 to 1 | CC(C)(C)CC(=O)N1CCN2C(=O)c3cc(-c4ccc(Cl)cc4F)ccc3N(CC(N)=O)C(=O)C2C1 (stereo not drawn) [Compound A145] |
| 3 | 0.1 to 1 | CC(C)(C)CC(=O)N1CCN2C(=O)c3cc(-c4ccc(Cl)cc4F)ccc3N(CC(N)=O)C(=O)[C@H]2C1 [Compound A150] |
| 3 | 0.1 to 1 | CC(C)(C)CC(=O)N1CCN2C(=O)c3cc(-c4ccc(Cl)cc4F)ccc3N(CCO)C(=O)[C@H]2C1 [Compound A152] |
| 10 | 0.1 to 1 | NC(=O)CN1C(=O)[C@H]2CN(C(=O)[C@@H]3CCCN3C3CCNCC3)CCN2C(=O)c2cc(-c3ccc(Cl)cc3F)ccc21 [Compound A155] |
| 7 | 0.1 to 1 | CN(C)CCN1C(=O)[C@H]2CN(C(=O)[C@@H]3CCCN3C3CCNCC3)CCN2C(=O)c2cc(-c3ccc(Cl)cc3F)ccc21 [Compound A156] |
| 2 | 0.1 to 1 | CC(C)(C)CC(=O)N1CCN2C(=O)c3cc(-c4ccc(Cl)cc4F)ccc3N(CCC3CCNCC3)C(=O)[C@H]2C1 [Compound A157] |
| 2 | 0.1 to 1 | CC(C)(C)CC(=O)N1CCN2C(=O)c3cc(-c4ccc(Cl)cc4F)ccc3N(CCO)C(=O)[C@@H]2C1 [Compound A160] |
